From PMC12434521, “Characterization of Next-Generation Inhibitors for the Inward-Rectifier Potassium Channel Kir2.1: Discovery of VU6080824” (ACS Medicinal Chemistry Letters, 2025) come the findings set out here.

Where “and” joins values, the source holds several entries; their conditions need not be identical. Equal entries are not always repeated. Where two headings read alike, the source gives them in different places.

Common to all, as to format: cell-based
In assay [1] the target is T1, human Kir2.1 (Homo sapiens, UniProt P63252).
T1 construct: expressed in transfected cells
T1 sequence (P63252 1-427): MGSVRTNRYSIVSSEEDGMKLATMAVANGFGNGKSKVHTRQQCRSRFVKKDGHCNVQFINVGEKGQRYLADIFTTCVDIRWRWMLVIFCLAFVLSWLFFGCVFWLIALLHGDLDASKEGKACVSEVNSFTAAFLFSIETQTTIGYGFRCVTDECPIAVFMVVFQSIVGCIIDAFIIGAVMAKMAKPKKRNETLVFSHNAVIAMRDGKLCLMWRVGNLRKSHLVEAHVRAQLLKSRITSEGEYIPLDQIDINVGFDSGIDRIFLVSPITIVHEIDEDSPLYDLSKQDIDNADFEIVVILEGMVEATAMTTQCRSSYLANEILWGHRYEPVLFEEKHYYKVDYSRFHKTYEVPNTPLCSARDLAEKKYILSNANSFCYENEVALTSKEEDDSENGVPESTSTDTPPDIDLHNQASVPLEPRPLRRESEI
In words: Kir2.1 thallium flux assay. The note with it: for Thallium Flux Efficacy (% Inhibition) / Emax: efficacy from 4PL fit, relative to ML133; for Emax: read-out: Thallium Flux Efficacy (% Inhibition). The method, then:
Thallium Flux Assay Experimental Conditions
The Tl+ flux assays were conducted as previously described with modifications optimized for Kir2.1 cell line as described below.1
Briefly, stable T-REx-HEK-293 cells expressing human K ir2.1 were cultured in DMEM growth medium (Catalog #11965-092, Gibco, Billings, MT) containing 10% heat-inactivated FBS (Catalog #16140, Gibco), 100 U/mL PenStrep, 5 μg/mL Blasticidin S, and 250 μg/mL Hygromycin.
The day prior to the experiment, cells at ~90% confluency were resuspended in plating media, which consisted of the same components as the growth media, except that heat-inactivated FBS was replaced with dialyzed FBS (Catalog #26400, Gibco). Tetracycline was added to the plating media to achieve a final concentration of 1 μg/ml to induce hKir2.1 expression. Cells were then counted and plated at 15,000 cells/well in black-walled, amine- or PDL- coated, 384-well plates at 20 μl/well (Corning, Corning, NY). On the day of experiment, the media was removed from the cell plate and replaced with 20 μl/well of Tl+-sensitive dye loading solution containing 2.5 μg/ml Thallos-AM (Catalog #11000-050, ION Biosciences, San Marcos, TX) in assay buffer using a Multidrop Combi dispenser (Thermo Fisher Scientific, Walkham, MA). Cell plates loaded with dye solution were incubated for 1 hour at room temperature. Following incubation, the cell plate was washed with HBSS assay buffer containing 20 mM HEPES using a BioTek ELx 405 TS plate washer (Agilent, Santa Clara, CA), leaving 20 μl of assay buffer in each well. The cell plate was then transferred to a Panoptic kinetic imaging plate reader (WaveFront Biosciences, Franklin, TN) for imaging at 1 Hz, 482/35 nm excitation and 536/40 nm emission for 10 seconds. Following this, 20 μl/well of HBSS assay buffer containing test compounds at 2-fold over their final concentrations were added and imaging continued for another eight minutes, after which 10 μl/well of chloride-free Tl+ stimulus solution was added (Catalog #11000-050, ION Biosciences). The final Tl2SO4 concentration in cell plate post-Tl+ stimulus solution addition was 0.25 mM. Images were collected for an additional two minutes. A ten-point concentration series from 30 μM to 2 nM with a 1:3 dilution factor was generated using an Echo liquid handler 650 (Labcyte, San Jose, CA). Final DMSO concentration, 0.3% (v/v) in the assay was constant across all compound concentrations.
The initial slopes of the Tl+-induced fluorescence changes were fit to a four-parameter logistic equation using our in-house software Waveguide to determine potency and efficacy values. […]
Bauer, J. A.; Days, E. L.; Lindsley, C. […]

Assay [2] addresses T1, human Kir2.1. In words: Kir2.1 manual patch clamp (MPC) assay. The conditions noted are these: for Manual patch clamp Emax / Emax: % inhibition of Ba2+-sensitive current at highest tested concentration (3–30 μM); for IC50: pH 7.4, -120 mV, normalized to 2 mM Ba2+ block, top concentration 10 μM (ML133 30 μM, 5t 3 μM). The method, then: (§1) Manual Patch Claim Assay Experimental Conditions
(§2) Whole-cell patch-clamp electrophysiology was used to record K ir2.1 currents from a stably transfected monoclonal T-Rex-HEK-293 cell line with a tetracycline-inducible promoter expressing human Kir2.1, as described previously1 cultured in a 5% CO2 incubator at 37°C. Kir2.1 expression was induced by overnight treatment with 1 µg/mL tetracycline. Cells were dissociated using 0.25% Trypsin-EDTA and seeded onto 12 mm circular coverslips (Electron Microscopy Sciences, PA, USA) for same-day whole-cell patch-clamp recordings. Kir2.1 currents were recorded at room temperature using an AxoPatch 200B amplifier with Clampex 10.7 software (Molecular Devices, USA). The voltage-clamp protocol consisted of a 1-s step to -120 mV from a -80 mV holding potential, followed by a 2-s ramp to +40 mV, repeated every 10 s. Data were sampled at 5 kHz and filtered at 1 kHz. Patch pipettes, pulled from 1.5 mm OD thin-walled capillaries (Warner Instruments, MA, USA) using a Sutter P-1000 puller (Sutter Instrument, CA, USA), had resistances of 2–3 MΩ when filled with intracellular solution containing (mM): 135 KCl, 10 HEPES, 1 EGTA, 2 MgCl2, 2 Na2ATP (pH 7.35, adjusted with KOH). The extracellular solution contained (mM): 135 NaCl, 5 KCl, 2 CaCl2, 1 MgCl2, 5 Glucose, 10 HEPES, 10 Sucrose (pH 7.35, adjusted with NaOH). After establishing stable baseline Kir2.1 currents, cells were perfused with compounds at concentrations of 0.03–30 µM until response saturation (within minutes).
(§3) Recordings concluded with a 2 mM Ba2+ solution to isolate Ba2+-sensitive currents, with compound responses expressed as fractions of this current. Current amplitudes at the -120 mV step were analyzed using Clampfit 11.2 (Molecular Devices). IC50 values were calculated by fitting the Hill equation to concentration-response curves (CRCs) using variable -slope nonlinear regression in GraphPad Prism 10.4 (GraphPad Software).
(§4) MPC experiments for Kir2.2 and Kir2.3 were conducted in an analogous fashion.1
In general terms: The patch-clamp technique gives a direct electrical read-out from membranes.

In the next assay the target is T2, Kir2.2 (Homo sapiens, UniProt Q14500).
T2 construct: expressed in transfected cells
T2 sequence (Q14500 1-433): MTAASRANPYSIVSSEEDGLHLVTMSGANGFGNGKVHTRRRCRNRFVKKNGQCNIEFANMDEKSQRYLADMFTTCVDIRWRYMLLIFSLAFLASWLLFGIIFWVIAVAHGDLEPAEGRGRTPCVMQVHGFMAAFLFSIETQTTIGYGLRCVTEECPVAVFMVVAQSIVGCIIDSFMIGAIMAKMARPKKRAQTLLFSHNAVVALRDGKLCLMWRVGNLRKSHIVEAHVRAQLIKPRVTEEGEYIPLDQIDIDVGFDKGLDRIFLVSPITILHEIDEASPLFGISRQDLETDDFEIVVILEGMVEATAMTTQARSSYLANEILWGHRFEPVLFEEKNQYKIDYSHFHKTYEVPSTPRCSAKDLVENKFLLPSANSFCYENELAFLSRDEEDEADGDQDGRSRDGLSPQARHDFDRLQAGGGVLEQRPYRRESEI
In words: Kir2.2 manual patch clamp (MPC). The method, then: as §1, §2, §3, §4

[3] abbreviates: T-REx-HEK-293 cells expressing human Kir2.1, 4PL fit, top concentration 30 μM, read-out: Thallium Flux Potency IC50.

With `[2H]C([2H])([2H])Oc1ccc(CNCc2ccc(-c3cccc(OC)c3)cc2)cc1` [Compound 9], the “Thallium Flux Efficacy (% Inhibition)” value at human Kir2.1 [1] was determined as 100%. Also, the “Manual patch clamp Emax” value at human Kir2.1 [2] (pH 7.4) came to 99%. The “Kir2.1/Kir2.2 Selectivity (MPC)” value at Kir2.2 is recorded as 1.4 fold.
Regarding `COc1ccc(CNCc2ccc(-c3cccc(C#N)c3)cc2)cc1` [Compound 5t], the IC50 at human Kir2.1 [1] (setting [3]) is 4.9 µM; on human Kir2.1 [2] it was 0.48 µM. Besides, the values for the Emax at human Kir2.1 [1] and at human Kir2.1 [2] (pH 7.4) were 100% and 98%, respectively. For the same compound, the “Fold more potent than ML133 in MPC” value at human Kir2.1 [2] (pH 7.4) is listed as 3–5 fold.
In the case of `COc1ccc(CNCc2ccc(-c3cccc(OC)c3)cc2)cc1` [Compound 5s, 1-(3′-Methoxy-[1,1’-biphenyl]-4-yl)-N-(4-methoxybenzyl)methanamine], the IC50 came to 5.9 µM at human Kir2.1 [1] (setting [3]), 0.35 µM against human Kir2.1 [2] and 0.75 µM against Kir2.2. The Emax on human Kir2.1 [1] was determined as 101%; on human Kir2.1 [2] (pH 7.4), 100%. Moreover, the “Fold more potent than ML133 in MPC” value at human Kir2.1 [2] (pH 7.4) is given as 3–5 fold. Besides, the figures for the “Kir2.1/Kir2.2 Selectivity (MPC)” value at Kir2.2 and on Kir2.2 (listed as VU6080824) were 2.1 fold and “approximately 2 fold”, respectively.
On to `COc1ccc(CNCc2cccc(-c3ccccc3)c2)cc1` [Compound 5j], for which the IC50 came out at 12.8 µM on human Kir2.1 [1] (setting [3]) and 0.39 µM on human Kir2.1 [2]. Further, the Emax at human Kir2.1 [1] was 106%; on human Kir2.1 [2] (pH 7.4) it was 100%. For the same compound, at human Kir2.1 [2] (pH 7.4), the “Fold more potent than ML133 in MPC” value is given as 3–5 fold.
With `[2H]C([2H])([2H])Oc1ccc(CNCc2ccc(-c3cccc(OC([2H])([2H])[2H])c3)cc2)cc1` [Compound 13], the “Thallium Flux Efficacy (% Inhibition)” value at human Kir2.1 [1] was 100%. In addition, the “Manual patch clamp Emax” value at human Kir2.1 [2] (pH 7.4) came to 99%. Moreover, the “Kir2.1/Kir2.2 Selectivity (MPC)” value at Kir2.2 stood at 3.2 fold.
`COc1ccc(CNCc2cccc3ccccc23)cc1` [ML133, N-(4-methoxybenzyl)-1-(naphthalen-1-yl)methanamine, reference compound]: the IC50 on human Kir2.1 [1] (setting [3]) was 10.1 µM; at human Kir2.1 [1] (mean ± SEM over 9 experimental plates in triplicate, read-out: Thallium flux pIC50 (converted)), 10.5 µM; at human Kir2.1 [2] it was 1.5 µM and 1.51 µM. The Emax was determined as 101% at human Kir2.1 [1] and 99% at human Kir2.1 [2] (pH 7.4).
With `COc1ccc(CNCc2ccc3c(c2)OC(F)(F)O3)cc1` [Compound 5h], the “Thallium flux potency relative to ML133” value on human Kir2.1 [1] is “equipotent”. Moreover, the IC50 stood at 11.2 µM on human Kir2.1 [1] (setting [3]) and 3.03 µM on human Kir2.1 [2]. The results for the Emax at human Kir2.1 [1] and on human Kir2.1 [2] (pH 7.4) were 99% and 92%, respectively.
As for `[2H]C([2H])([2H])Oc1ccc(CNCc2cccc3ccccc23)cc1` [Compound 7], the “Thallium flux potency relative to ML133” value at human Kir2.1 [1] is on record as “equipotent”. Also, the results for the IC50 at human Kir2.1 [1] (setting [3]) and against human Kir2.1 [2] were 11.1 µM and 3.94 µM, respectively. The Emax at human Kir2.1 [1] came to 102%; on human Kir2.1 [2] (pH 7.4) it was 82%.
Take `COc1ccc(CNCc2ccc(-c3cccc(F)c3)cc2)cc1` [Compound 5p]: the IC50 at human Kir2.1 [1] (setting [3]) turned out to be 8.1 µM; against human Kir2.1 [2], 0.3 µM. Moreover, the Emax on human Kir2.1 [1] is 99%; at human Kir2.1 [2] (pH 7.4), 98%. The “Fold more potent than ML133 in MPC” value at human Kir2.1 [2] (pH 7.4) is on record as 3–5 fold.
For the compound `COc1ccc(CNCc2ccc(-c3ccccc3)cc2)cc1` [Compound 5k], the IC50 at human Kir2.1 [1] (setting [3]) was determined as 8.2 µM; on human Kir2.1 [2], 1.39 µM. In addition, the Emax at human Kir2.1 [1] was 101%; at human Kir2.1 [2] (pH 7.4) it was 99%. Further, the “MPC potency relative to ML133” value on human Kir2.1 [2] (pH 7.4) is “equipotent”.
In the case of `[2H]C([2H])([2H])Oc1cccc(-c2ccc(CNCc3ccc(OC)cc3)cc2)c1` [Compound 11], the “Thallium Flux Efficacy (% Inhibition)” value at human Kir2.1 [1] came to 100%. Besides, on human Kir2.1 [2] (pH 7.4), the “Manual patch clamp Emax” value was 99%. In addition, the “Kir2.1/Kir2.2 Selectivity (MPC)” value on Kir2.2 is 0.73 fold.
